The structures appear in SMILES notation.

The values below come from US20110028509A1, “Sulfonamides” (MERCK SERONO SA, priority 2008, published 2011).

Type in all cases: cell-based
Experiment [1] deals with T1, CXCR3 (Homo sapiens, UniProt P49682).
T1 sequence (P49682 1-368): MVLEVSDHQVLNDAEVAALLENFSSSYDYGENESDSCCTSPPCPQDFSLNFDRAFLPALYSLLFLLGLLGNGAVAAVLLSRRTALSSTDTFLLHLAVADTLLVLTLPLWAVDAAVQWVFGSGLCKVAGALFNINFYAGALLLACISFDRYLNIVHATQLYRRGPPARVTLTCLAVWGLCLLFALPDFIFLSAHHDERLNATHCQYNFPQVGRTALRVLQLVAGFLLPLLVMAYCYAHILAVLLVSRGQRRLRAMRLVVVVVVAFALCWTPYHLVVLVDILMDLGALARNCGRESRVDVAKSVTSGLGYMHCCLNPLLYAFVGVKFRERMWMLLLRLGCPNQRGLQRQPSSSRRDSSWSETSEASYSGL
Description: Chemotaxis assay IP10, L1.2 recombinant cells expressing hCXCR3. The settings on record: L1.2 hCXCR3 cells, IP10 around 0.3 nM, 4 hours. The procedure: (§1) Human CXCR3 cDNA was amplified by PCR from a human cells cDNA library (Clontech) and subcloned into pcDNA3.1 (Invitrogen). Murine pre-B L1.2 cells were transfected with hCXCR3-pcDNA3.1 and were grown at 37° C., 5% CO2 in RPMI 1640 medium (Invitrogen, USA) supplemented with 5% heat inactivated fetal calf serum (Cancerra, Australia), 2 mM glutamine (Invitrogen), 50 units ml−1 penicillin, 50 μml−1 streptomycin. Stable transfectant clonal populations were selected using 800 μg/ml geneticin.
L1.2 recombinant cells expressing the receptor hCXCR3 were maintained in culture in RPMI 1640 (invitrogen), 5% Foetal Bovine Serum (invitrogen), 2 mM glutamine(invitrogen), 50 u/ml penicillin/streptomycin (invitrogen), at 37° C.-5% CO2—in an H2O saturated incubator. In order to stimulate the expression of the receptor, cells were incubated overnight with 5 mM butyric acid (Sigma)
This mix of cells/compounds was then incubated at 37° C.-5% CO2—in an H2O saturated incubator during 30 minutes. Cells were then dispensed as a drop on each corresponding wells of the chemotaxis system. Cell migration was then induced at 37° C.-5% CO2—in an H2O incubator during 4 hours. Filters were then removed and cells that had migrated were transferred in a black plate (Costar). The plates were stored overnight at −80° C. Cell migration ratio was calculated using the cyquant dye (Molecular Probes-C7026).

In experiment [2] the target is T1, CXCR3. Description: CXCR3 Ca2+ mobilization (FLIPR), stable hCXCR3-CHO cell line, I-TAC stimulated. Set-up: host or cells: CHO cells stably expressing hCXCR3. The settings on record: hCXCR3-CHO cells, I-TAC 100 nM stimulated Ca2+ response; read-out: Ca-ITAC. The essentials: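 CHO cells stably expressing hCXCR3, grown 18 hours after plating, loaded with calcium indicator dye 60 minutes; compounds equilibrated 20 minutes at room temperature. Fluorescence change evoked by 100 nM I-TAC read on FLIPR; activity expressed as percent of I-TAC response without compound (100%).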
In general terms: Calcium assays in cells follow changes in intracellular calcium, usually with a dye or a luminescent sensor.

Experiment [3] addresses T1, CXCR3. Description: Chemotaxis assay ITAC (CXCL11), L1.2-CXCR3 cells. Set-up: expressed in transfected cells. The settings on record: 1 nM CXCL11 (I-TAC), 4 hours. The procedure: as §1
L1.2-CXCR3 cells were grown for 24 hours at 0.5×10^6 cells/ml in chemotaxis medium containing 5 mM butyric acid (Sigma). Compounds were on one hand mixed with 1 nM of CXCL11 (I-TAC) in phenol-red free RPMI 1640 (invitrogen) supplemented with 5% fetal bovine serum in presence of 1% DMSO. The CXCL11/compounds mixture was then added to lower chambers of chemotaxis 96 well microplates (neuroprobe), and framed filters ([…] pore size) were put on top of the lower chambers. Compounds were on the other hand mixed with L1.2 CXCR3 cells and incubated in chemotaxis medium at 1.5×10^6 cells/ml in presence of 1% DMSO at 37° C., 5% CO2 for 30 minutes. Cells/compounds mixture was then added on top of the frame filters and migration was performed at 37° C., 5% CO2 for 4 hours. The number of migrated cells in the bottom chamber was determined using the CyQuant GR dye (Molecular Probe), according to the manufacturer.

As for `O=C(NCc1cccc(Cl)c1)c1ccc(CN(Cc2ccccc2)S(=O)(=O)c2ccc(Cl)cc2)cc1` [Example 1, 4-({benzyl[(4-chlorophenyl)sulfonyl]amino}methyl)-N-(3-chlorobenzyl)benzamide], the IC50 at CXCR3 [1] was found to be 1.29 µM.

For the molecule `O=C(NC[C@@H]1CCCO1)c1ccc(CN(Cc2ccccc2)S(=O)(=O)c2ccc(Cl)cc2)cc1` [Example 3, 4-({benzyl[(4-chlorophenyl)sulfonyl]amino}methyl)-N-[(2S)-tetrahydrofuran-2-ylmethyl]benzamide], at CXCR3 [1], the IC50 is 2.27 µM.

In the case of `O=C(NCCc1cccc([N+](=O)[O-])c1)c1ccc(CN(Cc2ccccc2)S(=O)(=O)c2ccc(Cl)cc2)cc1` [Example 4, 4-({benzyl[(4-chlorophenyl)sulfonyl]amino}methyl)-N-[2-(3-nitrophenyl)ethyl]benzamide], the IC50 at CXCR3 [1] is 2.45 µM. As to `COc1ccc(S(=O)(=O)N(Cc2ccc(C(=O)NCc3cccc(Cl)c3)cc2)Cc2cccnc2)cc1` [Example 9, N-(3-chlorobenzyl)-4-{[[(4-methoxyphenyl)sulfonyl](pyridin-3-ylmethyl)amino]methyl}benzamide], the IC50 at CXCR3 [1] was found to be 1.15 µM. With `COc1ccc(S(=O)(=O)NC(=O)c2ccc(CN(Cc3ccccn3)S(=O)(=O)c3ccc(Cl)cc3)cc2)cc1` [Example 14, 4-{[[(4-chlorophenyl)sulfonyl](pyridin-2-ylmethyl)amino]methyl}-N-[(4-methoxyphenyl)sulfonyl]benzamide], on CXCR3 [1], the IC50 was 3.87 µM. On to `O=C(NS(=O)(=O)Cc1cccc([N+](=O)[O-])c1)c1ccc(CN(Cc2ccccc2)S(=O)(=O)c2ccc(Cl)cc2)cc1` [Example 15, 4-({benzyl[(4-chlorophenyl)sulfonyl]amino}methyl)-N-[(3-nitrobenzyl)sulfonyl]benzamide], for which the IC50 at CXCR3 [1] stood at 2.42 µM.

For `O=S(=O)(c1ccc(Cl)cc1)N(Cc1ccc(-c2nnc(O)o2)cc1)Cc1ccccn1` [Example 19, 4-chloro-N-[4-(5-hydroxy-1,3,4-oxadiazol-2-yl)benzyl]-N-(pyridin-2-ylmethyl)benzene sulfonamide], the IC50 on CXCR3 [1] came out at 0.695 µM.

With `O=S(=O)(c1ccc(Cl)cc1)N(Cc1ccc(-c2nnn[nH]2)cc1)Cc1ccccc1F` [Example 20, 4-chloro-N-(2-fluorobenzyl)-N-[4-(1H-tetrazol-5-yl)benzyl]benzene sulfonamide], the IC50 at CXCR3 [1] stood at 0.47 µM. Consider `O=S(=O)(c1ccc(Cl)cc1)N(Cc1ccc(-c2nnn[nH]2)cc1)Cc1cccc(Cl)c1` [Example 21, 4-chloro-N-(3-chlorobenzyl)-N-[4-(1H-tetrazol-5-yl)benzyl]benzenesulfonamide], for which the IC50 on CXCR3 [1] amounted to 1.29 µM. In the case of `O=S(=O)(c1ccc(Cl)cc1)N(Cc1ccc(F)cc1)Cc1ccc(-c2nnn[nH]2)cc1` [Example 22, 4-chloro-N-(4-fluorobenzyl)-N-[4-(1H-tetrazol-5-yl)benzyl]benzenesulfonamide], the IC50 at CXCR3 [1] is 2.56 µM. With `COc1cccc(CN(Cc2ccc(-c3nnn[nH]3)cc2)S(=O)(=O)c2ccc(Cl)cc2)c1` [Example 23, 4-chloro-N-(3-methoxybenzyl)-N-[4-(1H-tetrazol-5-yl)benzyl]benzene sulfonamide], the IC50 on CXCR3 [1] amounted to 1.46 µM.

For the molecule `N#Cc1ccc(S(=O)(=O)N(Cc2ccc(C(=O)NCc3cccnc3)cc2)Cc2ccccn2)cc1` [Example 136], the IC50 turned out to be 8000 nM at CXCR3 [2] and 930 nM at CXCR3 [3]. On to `N#Cc1ccc(S(=O)(=O)N(Cc2ccc(C(=O)NCc3ccncc3)cc2)Cc2ccccn2)cc1` [Example 137], for which the IC50 at CXCR3 [2] is 3000 nM; on CXCR3 [3] it was 4310 nM. Regarding `N#Cc1ccc(S(=O)(=O)N(Cc2ccc(C(=O)NCc3ccccc3)cc2)Cc2ccccn2)cc1` [Example 138], the IC50 on CXCR3 [2] amounted to 100 nM; against CXCR3 [3], 60 nM. On the same counts, the results for `Cc1nnc(CNC(=O)c2ccc(CN(Cc3ccccn3)S(=O)(=O)c3ccc(C#N)cc3)cc2)o1` [Example 142] are 10000 nM and 4180 nM. For `Cn1c(CNC(=O)c2ccc(CN(Cc3ccccn3)S(=O)(=O)c3ccc(C#N)cc3)cc2)nc2ccccc21` [Example 143], in that order: 400 nM and 1000 nM. Take `COC(=O)[C@@H](Cc1ccccc1)NC(=O)c1ccc(CN(Cc2ccccn2)S(=O)(=O)c2ccc(Cl)cc2)cc1` [Example 145]: the IC50 stood at 2000 nM on CXCR3 [2] and 400 nM against CXCR3 [3]. In the case of `COC(=O)C(NC(=O)c1ccc(CN(Cc2ccccn2)S(=O)(=O)c2ccc(Cl)cc2)cc1)c1ccc(F)c(F)c1` (centres unmarked) [Example 147], the IC50 at CXCR3 [2] was 400 nM; against CXCR3 [3] it was 82 nM.

As to `O=C(NC(C(=O)O)c1ccc(F)c(F)c1)c1ccc(CN(Cc2ccccn2)S(=O)(=O)c2ccc(Cl)cc2)cc1` (centres unmarked) [Example 149, (4-{[(4-Chloro-benzenesulfonyl)-pyridin-2-ylmethyl-amino]-methyl}-benzoylamino)-(3,4-difluoro-phenyl)-acetic acid], the IC50 is 100 nM on CXCR3 [2] and 73 nM against CXCR3 [3]. On the same counts, the results for `COC(=O)c1ccc(S(=O)(=O)N(Cc2ccc(C(=O)NC3(c4ccccc4)CC3)cc2)Cc2ccccn2)cc1` [Example 150] are 300 nM and 10 nM. On the same counts, the results for `N#Cc1ccc(S(=O)(=O)N(Cc2ccc([N+](=O)[O-])cc2)Cc2ccccn2)cc1` [Example 158] are 1000 nM and 4800 nM.

On to `O=S(=O)(c1cccc(-c2ccccc2)c1)N(Cc1ccc(-c2nnn[nH]2)cc1)Cc1ccccn1` [Example 166], for which the figures for the IC50 on CXCR3 [2] and at CXCR3 [3] were 1430 nM and 9050 nM, respectively. In the case of `C[C@@H](c1ccc(NC(=O)C2(c3ccccc3)CC2)cc1)N(Cc1ccccn1)S(=O)(=O)c1ccc(C#N)cc1` [Example 167], the results for the IC50 at CXCR3 [2] and on CXCR3 [3] were 250 nM and 1960 nM, respectively.

`CC(=O)OC(C(=O)Nc1ccc(CN(Cc2ccccn2)S(=O)(=O)c2ccc(Cl)cc2)cc1)c1ccccc1` (centres unmarked) [Example 169]: the IC50 at CXCR3 [2] is 700 nM; at CXCR3 [3], 10 nM.

With `O=C(Nc1ccc(CN(Cc2ccccn2)S(=O)(=O)c2ccc(Cl)cc2)cc1)C(O)c1ccccc1` (centres unmarked) [Example 170], the IC50 at CXCR3 [2] was determined as 400 nM; against CXCR3 [3] it was 50 nM. For `O=S(=O)(c1ccc(Cl)cc1)N(Cc1ccc(-c2nnn[nH]2)cc1)C1CCc2cc(Cl)ccc21` (centres unmarked) [Example 179], in that order: 350 nM and 8860 nM. `NC(C(=O)Nc1ccc(CN(Cc2ccccn2)S(=O)(=O)c2ccc(Cl)cc2)cc1)c1ccccc1` (centres unmarked) [Example 181]: the values for the IC50 at CXCR3 [2] and at CXCR3 [3] were 150 nM and 94 nM, respectively. Take `CC(=O)NC(C(=O)Nc1ccc(CN(Cc2ccccn2)S(=O)(=O)c2ccc(Cl)cc2)cc1)c1ccccc1` (centres unmarked) [Example 185]: the values for the IC50 at CXCR3 [2] and on CXCR3 [3] were 300 nM and 30 nM, respectively. On the same counts, the results for `CCOc1ccc(S(=O)(=O)N(Cc2ccc(C(=O)OC)c(OC)c2)Cc2ccccn2)cc1` [Example 188] are 10500 nM and 3800 nM. In the case of `CCOc1ccc(S(=O)(=O)N(Cc2ccc(C(=O)NC3(c4ccccc4)CC3)c(OC)c2)Cc2ccccn2)cc1` [Example 189], the IC50 was 2000 nM on CXCR3 [2] and 280 nM at CXCR3 [3]. As for `N#Cc1cccc(CN(Cc2ccccn2)S(=O)(=O)c2ccc(Cl)cc2)c1` [Example 195], the figures for the IC50 on CXCR3 [2] and at CXCR3 [3] were 4200 nM and 6810 nM, respectively. For `COC(=O)[C@@H](NC(=O)c1ccc(CN(Cc2ccccn2)S(=O)(=O)c2ccc(Cl)cc2)cc1)c1ccccc1` [Example 342], in that order: 800 nM and 54 nM.
